In PMC6610665, “On the potential of in vitro organ-chip models to define temporal pharmacokinetic-pharmacodynamic relationships” (Scientific Reports, 2019):
Read-outs that look alike come from different tables or passages of the source.

Columns and labels:
[1] = Heart only and heart:liver chip PKPD model (Phoenix NLME 7.0)
Experimental: Heart, liver, media, and PDMS compartments and their corresponding parameters can be seen outlined in Fig. 4a.
A fifth compartment, FPD, was added to the Phoenix model to represent a PD profile linked to the defined PK model.
Using the experimental data collected (Fig. 3), parameters (except for Kint) were simultaneously fit across heart only and heart-liver systems. […] In the heart only case, the liver compartment was eliminated resulting in relevant parameters being equal to 0. Volumes of each compartment was defined by system parameters described above. The liver volume was initialized based on the system estimates but allowed to vary to account for any differences between assumed and actual cell numbers or sizes. […] Published Guinea pig[23], dog[24] and human, PK profiles were used as inputs into the established model in order to predict cardiac bioaccumulation over time, and therefore predict change in predicted FPD. While Guinea pig and dog temporal PKPD data is available in the literature, matching human data is not. […] The reported standard deviation values in PK profile were used to capture the associated error in predicted FPD values.

[2] = design: method as in PMID 18587422, PMID 16581270; details: human; assumed for FPD simulation; cited from earlier work
[3] = heart:liver model, 5 µM terfenadine, mean ± SD
Experimental: (§1) All drugs were separated using gradient elution methodology on a C18 phase (Agilent Zorbax Eclipse Plus, 4.6 mm, 100 mm length, 3 µm particle diameter) with binary mobile phase. Samples (50 µL) were diluted with acetonitrile and centrifuged to precipitate proteins after addition of the internal standard. The MS was set to positive ion mode and multiple reactive monitoring with nitrogen used for collision induced dissociation.

[4] = design: method as in PMID 18587422, PMID 16581270; details: Guinea pig; assumed for FPD simulation; cited from earlier work
hiPS-CMs = assay: Heart only MPS model, field potential duration (FPD) by MEA; assay type: cell-based, human; details: 5 µM terfenadine
Experimental: The medium recirculates between 2 reservoirs through a microfluidic network formed by the PDMS gaskets, with flow driven by a rocking platform producing a sinusoidal rocking profile with amplitude of ±1° and period of 60 seconds. The medium flows over the cell-containing areas of the liver coverslips and cardiac cantilever and MEA chips within the microfluidic channel. The system contained a total of 2 mL of medium throughout the flow channel and reservoirs. Compound dosing was applied at the reservoir closest to the liver chamber, such that the compound would first pass over and interact with the liver before being recirculated throughout the system.
hiPS-CMs (purchased from Cellular Dynamics) were thawed and seeded directly onto the surfaces at 50,000 cells per MEA and 500,000 cells per cantilever[6]. Primary human hepatocytes were purchased from the Cell Resources Core (Massachusetts General Hospital, Boston, MA, USA). Once thawed, 150,000 hepatocytes were cultured in the hepatic chamber which was coated with rat tail collagen type I (60 ug/mL) as previously described[6]. […]
FPD, spontaneous beat frequency and CV were extracted using Clampfit (Axon Instruments). The FPD was calculated by measuring the time from the initiation of the Q-wave until the apex of t-wave. […]

[5] = heart only model, 5 µM terfenadine
Experimental: as §1

[6] = design: method as in PMID 18587422, PMID 16581270; details: dog; assumed for FPD simulation; cited from earlier work
[7] = fit across heart only and heart:liver systems

Structure (SMILES): CC(C)(C(=O)O)c1ccc(C(O)CCCN2CCC(C(O)(c3ccccc3)c3ccccc3)CC2)cc1 (centres unmarked) [fexofenadine]
- tvKint (delay of fexofenadine release into the system), estimate ([1]; fit to fexofenadine concentration data, units printed n/a): 0.00062

Structure (SMILES): CC(C)(C)c1ccc(C(O)CCCN2CCC(C(O)(c3ccccc3)c3ccccc3)CC2)cc1 (centres unmarked) [terfenadine]
- percent free protein in plasma [2]: 3%
- terfenadine concentration in media (peak) ([3]; 0.5 hours): 0.53 µM
- terfenadine concentration in heart chamber lysate (peak) ([3]; peak between 0.5 and 1 hours): 1.08 µM
- terfenadine concentration in liver chamber lysate (peak) ([3]; peak between 0.5 and 1 hours): 12.04 µM
- percent free protein in plasma [4]: 3%
- increase in FPD (hiPS-CMs; 12-hour timepoint): 4.8 fold
- increase in FPD (peak measurable change) (hiPS-CMs; 4 hours): 8 fold
- terfenadine concentration in media ([5]; 12-hour timepoint): 0.099 µM
- terfenadine concentration in media (peak) ([5]; 0.5 hours, mean ± SD): 5.88 µM
- terfenadine concentration in cardiomyocyte lysates (peak) ([5]; 4 hours, mean ± SD): 2.65 µM
- KC1 (flow medium to heart), estimate [1, 7]: 0.0019 min⁻¹
- KP2 (first order flow PDMS to medium), estimate [1, 7]: 0.00052 min⁻¹
- Kfc (metabolism of terfenadine to fexofenadine in heart compartment), estimate [1, 7]: 0.0009 min⁻¹
- KL2 (flow liver to medium), estimate ([1]; heart:liver system): 0.04988 min⁻¹
- Kfl (metabolism of terfenadine to fexofenadine in liver compartment), estimate ([1]; heart:liver system): 0.0162 min⁻¹
- percent free protein in plasma [6]: 2%
